Four molecules from ChEMBL document CHEMBL3351479, “Novel acylureidoindolin-2-one derivatives as dual Aurora B/FLT3 inhibitors for the treatment of acute myeloid leukemia” (Eur J Med Chem, 2014) can be followed below.

Active and inactive are the calls of the source. The rule behind the calls is not given here. Where only a bound is given, the exact number is not on record here.

Series [1] has as its target Dual specificity mitogen-activated protein kinase kinase 1 (Homo sapiens) (UniProt Q02750). The series can be described thus: Inhibition of MEK1/MAP2K1 (unknown origin) at 1 uM.
The target of series [2] is Angiopoietin-1 receptor (Homo sapiens) (UniProt Q02763). The series can be described thus: Inhibition of TEK/Tie-2 (unknown origin) at 1 uM.
The target in series [3] is Aurora kinase C (Homo sapiens) (UniProt Q9UQB9). The series can be described thus: Inhibition of Aurora C (unknown origin) at 1 uM.
Aurora kinase C (Homo sapiens), sequence (Q9UQB9 whole entry): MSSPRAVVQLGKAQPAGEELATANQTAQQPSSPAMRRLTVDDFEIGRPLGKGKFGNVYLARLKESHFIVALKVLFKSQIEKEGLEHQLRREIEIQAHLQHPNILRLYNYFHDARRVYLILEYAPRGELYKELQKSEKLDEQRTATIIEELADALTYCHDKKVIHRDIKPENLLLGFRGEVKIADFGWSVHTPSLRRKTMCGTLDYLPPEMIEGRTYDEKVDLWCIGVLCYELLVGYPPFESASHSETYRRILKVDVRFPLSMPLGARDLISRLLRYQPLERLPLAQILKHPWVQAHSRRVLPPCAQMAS
The target of series [4] is RAC-alpha serine/threonine-protein kinase (Homo sapiens) (UniProt P31749). The series can be described thus: Inhibition of AKT1 (unknown origin) at 1 uM.
In series [5] the target is Mitogen-activated protein kinase 9 (Homo sapiens) (UniProt P45984). The series can be described thus: Inhibition of JNK2 (unknown origin) at 1 uM.
The test system of series [6] is THP-1. The experiment in a line: Induction of apoptosis in human THP1 cells assessed as caspase 8 activation after 24 hrs. Format: functional, cell-based.
For series [7], the target named is Serine/threonine-protein kinase mTOR (Homo sapiens) (UniProt P42345). The experiment in a line: Inhibition of mTOR/FRAP1 (unknown origin) at 1 uM.
In series [8] the target is Receptor-type tyrosine-protein kinase FLT3 (Homo sapiens) (UniProt P36888). The experiment in a line: Inhibition of Aurora B/FLT3 in human MOLM13 cells assessed as inhibition of HH3 phosphorylation after 4 hrs by Dot-blot analysis. Particulars: MOLM-13. It counts as cell-based.
In series [9] the target is Hepatocyte growth factor receptor (Homo sapiens) (UniProt P08581). The experiment in a line: Inhibition of c-Met (unknown origin) at 1 uM.
Series [10] deals with MOLM-13. The experiment in a line: Induction of apoptosis in human MOLM13 cells assessed as caspase 8 activation after 24 hrs. Format: functional, cell-based.
The target in series [11] is Receptor-type tyrosine-protein kinase FLT3 (Homo sapiens) (UniProt P36888). The series can be described thus: Inhibition of Aurora B/FLT3 in human MOLM13 cells assessed as inhibition of STAT5 phosphorylation after 4 hrs by Dot-blot analysis. It counts as cell-based. The note with it: MOLM-13.
Series [12] concerns A549. The experiment in a line: Induction of apoptosis in human A549 cells assessed as caspase 8 activation after 24 hrs. Format: functional, cell-based.
In series [13] the test system is THP-1. The series can be described thus: Induction of apoptosis in human THP1 cells assessed as caspase 3 activation after 24 hrs. It counts as functional, cell-based.
For series [14], the target named is Serine/threonine-protein kinase Chk1 (Homo sapiens) (UniProt O14757). The experiment in a line: Inhibition of CHK1 (unknown origin) at 1 uM.
The target in series [15] is Tyrosine-protein kinase Lyn (Homo sapiens) (UniProt P07948). The series can be described thus: Inhibition of Lyn (unknown origin) at 1 uM.
Tyrosine-protein kinase Lyn (Homo sapiens), sequence (P07948 2-512 limits assumed): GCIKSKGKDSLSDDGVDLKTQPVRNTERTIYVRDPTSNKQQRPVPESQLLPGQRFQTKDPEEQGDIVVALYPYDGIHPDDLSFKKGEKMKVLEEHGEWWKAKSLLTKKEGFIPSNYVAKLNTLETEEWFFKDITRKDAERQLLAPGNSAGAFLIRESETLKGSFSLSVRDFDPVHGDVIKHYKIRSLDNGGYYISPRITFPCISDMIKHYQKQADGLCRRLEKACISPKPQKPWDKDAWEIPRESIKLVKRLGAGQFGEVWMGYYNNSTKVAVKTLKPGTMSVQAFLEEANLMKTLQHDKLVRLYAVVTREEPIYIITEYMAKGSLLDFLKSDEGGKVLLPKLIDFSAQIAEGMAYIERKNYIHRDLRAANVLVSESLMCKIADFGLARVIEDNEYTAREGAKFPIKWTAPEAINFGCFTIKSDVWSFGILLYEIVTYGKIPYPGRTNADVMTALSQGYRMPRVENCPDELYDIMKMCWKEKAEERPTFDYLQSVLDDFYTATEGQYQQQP
The target in series [16] is Serine/threonine-protein kinase B-raf (Homo sapiens) (UniProt P15056). The series can be described thus: Inhibition of BRAF (unknown origin) at 1 uM.
Series [17] relates to MOLM-13. The series can be described thus: Induction of apoptosis in human MOLM13 cells assessed as increase in FasL level up to 20 uM. Format: functional, cell-based.
Series [18] addresses Vascular endothelial growth factor receptor 2 (Homo sapiens) (UniProt P35968). The series can be described thus: Inhibition of KDR/VEGFR2 (unknown origin) at 1 uM.
The target in series [19] is Epidermal growth factor receptor (Homo sapiens) (UniProt P00533). The series can be described thus: Inhibition of EGFR (unknown origin) at 1 uM.
Series [20] deals with Rho-associated protein kinase 1 (Homo sapiens) (UniProt Q13464). The experiment in a line: Inhibition of ROCK1 (unknown origin) at 1 uM.
For series [21], the target named is Platelet-derived growth factor receptor beta (Homo sapiens) (UniProt P09619). The series can be described thus: Inhibition of PDGFRbeta (unknown origin) at 1 uM.
Platelet-derived growth factor receptor beta (Homo sapiens), sequence (P09619 whole entry): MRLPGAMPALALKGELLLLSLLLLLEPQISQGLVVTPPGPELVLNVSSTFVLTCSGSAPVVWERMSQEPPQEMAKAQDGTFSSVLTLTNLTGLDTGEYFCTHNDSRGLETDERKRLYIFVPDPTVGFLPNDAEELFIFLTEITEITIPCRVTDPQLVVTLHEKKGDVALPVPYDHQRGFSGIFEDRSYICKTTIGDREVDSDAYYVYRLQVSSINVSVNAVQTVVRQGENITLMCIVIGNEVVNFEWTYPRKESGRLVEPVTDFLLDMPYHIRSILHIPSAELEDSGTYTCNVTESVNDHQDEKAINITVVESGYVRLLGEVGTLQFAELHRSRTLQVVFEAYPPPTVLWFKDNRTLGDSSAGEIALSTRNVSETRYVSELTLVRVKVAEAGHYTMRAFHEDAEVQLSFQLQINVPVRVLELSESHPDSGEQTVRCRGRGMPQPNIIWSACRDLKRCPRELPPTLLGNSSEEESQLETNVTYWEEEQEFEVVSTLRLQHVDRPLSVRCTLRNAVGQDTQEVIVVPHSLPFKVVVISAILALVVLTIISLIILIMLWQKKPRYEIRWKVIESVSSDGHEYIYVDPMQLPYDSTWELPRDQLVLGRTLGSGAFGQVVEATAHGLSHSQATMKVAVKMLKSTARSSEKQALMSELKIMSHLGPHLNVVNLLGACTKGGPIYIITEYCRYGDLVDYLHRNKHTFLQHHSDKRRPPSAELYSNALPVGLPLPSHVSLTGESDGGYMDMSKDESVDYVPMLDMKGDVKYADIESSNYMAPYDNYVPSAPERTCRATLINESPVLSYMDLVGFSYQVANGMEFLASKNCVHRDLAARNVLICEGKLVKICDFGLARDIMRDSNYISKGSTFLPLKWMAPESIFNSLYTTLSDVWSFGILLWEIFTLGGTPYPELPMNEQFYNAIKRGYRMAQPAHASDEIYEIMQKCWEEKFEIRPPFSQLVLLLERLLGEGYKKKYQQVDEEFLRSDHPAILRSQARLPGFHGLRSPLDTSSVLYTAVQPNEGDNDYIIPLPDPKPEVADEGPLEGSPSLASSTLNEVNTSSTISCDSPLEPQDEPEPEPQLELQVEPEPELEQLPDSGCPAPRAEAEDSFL
Series [22] deals with Insulin-like growth factor 1 receptor (Homo sapiens) (UniProt P08069). The experiment in a line: Inhibition of IGF1R (unknown origin) at 1 uM.
The target in series [23] is Tyrosine-protein kinase Lck (Homo sapiens, UniProt P06239). Particulars: 1 uM.
Description: Inhibition of Lck (unknown origin) at 1 uM
The target in series [24] is Aurora kinase A (Homo sapiens) (UniProt O14965). The series can be described thus: Inhibition of Aurora A (unknown origin) at 1 uM.
Aurora kinase A (Homo sapiens), sequence (O14965 whole entry): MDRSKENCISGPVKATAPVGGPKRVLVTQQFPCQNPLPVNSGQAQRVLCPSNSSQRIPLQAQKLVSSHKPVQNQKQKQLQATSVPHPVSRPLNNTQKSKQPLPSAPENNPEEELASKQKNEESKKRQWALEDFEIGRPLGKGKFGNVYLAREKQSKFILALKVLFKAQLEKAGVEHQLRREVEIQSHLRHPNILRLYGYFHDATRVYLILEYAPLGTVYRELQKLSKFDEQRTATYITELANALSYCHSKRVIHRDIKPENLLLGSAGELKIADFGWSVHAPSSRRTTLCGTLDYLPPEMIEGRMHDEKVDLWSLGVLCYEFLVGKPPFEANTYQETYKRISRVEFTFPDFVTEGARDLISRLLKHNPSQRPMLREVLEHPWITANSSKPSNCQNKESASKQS
Series [25] deals with Tyrosine-protein kinase JAK2 (Homo sapiens) (UniProt O60674). The experiment in a line: Inhibition of JAK2 (unknown origin) at 1 uM.
Series [26] relates to MOLM-13. The series can be described thus: Antitumor activity against human MOLM13 cells xenografted in ip dosed BALB/c AnN.Cg-Foxnlnu/CrlNarl mouse assessed as reduction in tumor growth treated once daily for 16 days. Format: functional, organism-based. (In general: A xenograft is tissue or cells of one species grown in another, often human tumour cells in immunodeficient mice.)

Series [27] addresses Serine/threonine-protein kinase PLK1 (Homo sapiens) (UniProt P53350). The experiment in a line: Inhibition of Plk1 (unknown origin) at 1 uM.
The target in series [28] is Fibroblast growth factor receptor 1 (Homo sapiens) (UniProt P11362). The experiment in a line: Inhibition of FGFR1 (unknown origin) at 1 uM.
Series [29] concerns the target Tyrosine-protein kinase ABL1 (Homo sapiens) (UniProt P00519). The series can be described thus: Inhibition of ABL1 (unknown origin) at 1 uM.
Series [30] deals with Platelet-derived growth factor receptor alpha (Homo sapiens) (UniProt P16234). The experiment in a line: Inhibition of PDGFRalpha (unknown origin) at 1 uM.
Platelet-derived growth factor receptor alpha (Homo sapiens), sequence (P16234 whole entry): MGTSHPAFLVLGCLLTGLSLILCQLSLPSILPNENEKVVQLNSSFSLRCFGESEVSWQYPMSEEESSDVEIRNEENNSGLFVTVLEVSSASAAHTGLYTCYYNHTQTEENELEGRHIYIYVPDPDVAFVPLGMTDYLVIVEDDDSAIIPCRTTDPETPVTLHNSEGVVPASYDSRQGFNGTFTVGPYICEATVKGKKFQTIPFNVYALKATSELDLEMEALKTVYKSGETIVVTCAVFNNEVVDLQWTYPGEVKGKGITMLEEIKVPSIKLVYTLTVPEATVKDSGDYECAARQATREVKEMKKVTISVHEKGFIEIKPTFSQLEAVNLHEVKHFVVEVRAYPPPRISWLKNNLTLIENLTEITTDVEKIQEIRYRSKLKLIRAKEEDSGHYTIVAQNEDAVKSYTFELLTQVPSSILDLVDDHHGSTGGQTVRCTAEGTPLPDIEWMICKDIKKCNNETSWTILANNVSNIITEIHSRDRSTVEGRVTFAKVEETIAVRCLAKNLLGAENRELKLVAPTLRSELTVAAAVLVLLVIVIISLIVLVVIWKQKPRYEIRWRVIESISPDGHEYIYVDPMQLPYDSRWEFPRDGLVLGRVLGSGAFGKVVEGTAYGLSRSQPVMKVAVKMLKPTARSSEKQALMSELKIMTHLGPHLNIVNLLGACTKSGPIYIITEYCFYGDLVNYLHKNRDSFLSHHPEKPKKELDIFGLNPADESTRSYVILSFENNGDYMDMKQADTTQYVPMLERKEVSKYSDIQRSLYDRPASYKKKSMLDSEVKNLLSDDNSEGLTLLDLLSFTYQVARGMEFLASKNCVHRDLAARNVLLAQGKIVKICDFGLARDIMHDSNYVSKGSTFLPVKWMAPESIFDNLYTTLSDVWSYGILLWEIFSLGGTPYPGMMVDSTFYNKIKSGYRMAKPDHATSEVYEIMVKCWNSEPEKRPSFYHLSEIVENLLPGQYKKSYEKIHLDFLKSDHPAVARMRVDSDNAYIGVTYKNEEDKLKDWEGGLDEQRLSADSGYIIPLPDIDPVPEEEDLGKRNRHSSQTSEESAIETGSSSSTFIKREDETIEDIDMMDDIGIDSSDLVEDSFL
Series [31] deals with MOLM-13. The experiment in a line: Induction of apoptosis in human MOLM13 cells assessed as caspase 3 activation after 24 hrs. It counts as functional, cell-based.
In series [32] the target is Proto-oncogene tyrosine-protein kinase Src (Homo sapiens) (UniProt P12931). The experiment in a line: Inhibition of c-Src (unknown origin) at 1 uM.
Series [33] deals with Receptor tyrosine-protein kinase erbB-2 (Homo sapiens) (UniProt P04626). The experiment in a line: Inhibition of ERBB2/Her2 (unknown origin) at 1 uM.
In series [34] the target is T1, Aurora kinase B (Homo sapiens, UniProt Q96GD4). The experiment in a line: Inhibition of Aurora B (unknown origin) using HLRRASLG substrate.
T1 sequence (Q96GD4 whole entry): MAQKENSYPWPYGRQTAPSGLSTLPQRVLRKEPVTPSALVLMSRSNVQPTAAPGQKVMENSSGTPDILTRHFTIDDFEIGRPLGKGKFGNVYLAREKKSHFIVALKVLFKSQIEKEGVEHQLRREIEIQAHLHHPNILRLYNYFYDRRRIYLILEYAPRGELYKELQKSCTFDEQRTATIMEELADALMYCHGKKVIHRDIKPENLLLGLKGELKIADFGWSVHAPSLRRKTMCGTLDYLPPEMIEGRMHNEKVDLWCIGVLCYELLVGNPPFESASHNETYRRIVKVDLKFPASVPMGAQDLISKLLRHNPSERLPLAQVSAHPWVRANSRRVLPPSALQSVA
A short description of series [35]: Cytotoxicity against human HL60 cells assessed as cell viability after 48 hrs by MTT assay. It counts as functional, cell-based. The note with it: HL-60, 48 h. (In general: Tetrazolium dyes change colour on reduction, which living cells bring about.)
Series [36] deals with THP-1. The series can be described thus: Cytotoxicity against human THP1 cells assessed as cell viability at 1 uM after 48 hrs by MTT assay. It counts as functional. The note with it: THP-1, 48 h, read-out: Activity.
Series [37] concerns THP-1. The series can be described thus: Cytotoxicity against human THP1 cells assessed as cell viability after 48 hrs by MTT assay. The note with it: Homo sapiens, THP-1, 48 h. It counts as functional, cell-based.
Series [38] deals with MV4-11. The experiment in a line: Cytotoxicity against human MV4-11 cells assessed as cell viability at 1 uM after 48 hrs by MTT assay. Format: functional. The note with it: MV4-11, 48 h, read-out: Activity.
Series [39] relates to MV4-11. The series can be described thus: Cytotoxicity against human MV4-11 cells assessed as cell viability after 48 hrs by MTT assay. The note with it: Homo sapiens, MV4-11, 48 h. Format: functional, cell-based.
In series [40] the test system is MOLM-13. The experiment in a line: Cytotoxicity against human MOLM13 cells assessed as cell viability after 48 hrs by MTT assay. Format: functional, cell-based. Particulars: MOLM-13, 48 h.
The subject of series [41] is MOLM-13. The experiment in a line: Cytotoxicity against human MOLM13 cells assessed as cell viability at 1 uM after 48 hrs by MTT assay. It counts as functional. The note with it: MOLM-13, 48 h, read-out: Activity.
Series [42] is described as follows: Cytotoxicity against human HL60 cells assessed as cell viability at 1 uM after 48 hrs by MTT assay. It counts as functional. Particulars: HL-60, 48 h, read-out: Activity.
Series [43] addresses T2, Receptor-type tyrosine-protein kinase FLT3 (Homo sapiens, UniProt P36888).
T2 sequence (P36888 whole entry): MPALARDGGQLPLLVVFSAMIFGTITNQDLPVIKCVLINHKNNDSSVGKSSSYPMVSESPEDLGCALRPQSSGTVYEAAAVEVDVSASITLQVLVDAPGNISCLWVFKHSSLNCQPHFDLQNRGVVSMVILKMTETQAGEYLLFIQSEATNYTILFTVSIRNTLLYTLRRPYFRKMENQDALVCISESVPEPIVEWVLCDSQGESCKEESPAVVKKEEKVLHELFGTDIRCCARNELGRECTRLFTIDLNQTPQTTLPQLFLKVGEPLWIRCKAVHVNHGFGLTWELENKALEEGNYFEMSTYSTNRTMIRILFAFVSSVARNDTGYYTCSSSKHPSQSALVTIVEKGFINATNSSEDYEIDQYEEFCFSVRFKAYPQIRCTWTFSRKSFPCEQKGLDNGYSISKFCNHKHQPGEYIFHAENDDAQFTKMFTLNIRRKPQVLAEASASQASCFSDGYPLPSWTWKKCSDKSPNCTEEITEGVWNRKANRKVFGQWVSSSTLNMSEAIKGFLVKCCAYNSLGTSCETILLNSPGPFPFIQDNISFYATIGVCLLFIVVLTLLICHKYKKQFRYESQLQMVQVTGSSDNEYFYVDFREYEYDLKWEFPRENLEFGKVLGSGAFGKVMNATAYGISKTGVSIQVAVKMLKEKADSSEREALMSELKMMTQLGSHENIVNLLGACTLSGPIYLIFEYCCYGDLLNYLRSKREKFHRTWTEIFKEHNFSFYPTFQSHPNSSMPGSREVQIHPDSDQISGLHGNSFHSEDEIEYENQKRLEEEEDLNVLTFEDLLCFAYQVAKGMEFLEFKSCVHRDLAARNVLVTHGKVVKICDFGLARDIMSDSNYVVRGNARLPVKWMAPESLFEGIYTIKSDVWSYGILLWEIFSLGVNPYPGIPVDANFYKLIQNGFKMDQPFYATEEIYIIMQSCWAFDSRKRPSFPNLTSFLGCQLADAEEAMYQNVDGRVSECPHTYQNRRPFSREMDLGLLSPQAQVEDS
The experiment in a line: Inhibition of FLT3 (unknown origin) using EAIYAAPFAKKK substrate.

The nature of series [44]: Permeability coefficient of the compound at pH 7.4 by PAMPA-GIT assay. It counts as ADME. The note with it: read-out: Peff. (In general: PAMPA measures passive passage across an artificial lipid membrane.)
The nature of series [45]: Ratio of solubility in PBS to solubility in DMSO. Format: physicochemical.
For series [46], the target named is T1, Aurora kinase B. The experiment in a line: Inhibition of Aurora B (unknown origin) using HLRRASLG substrate at 1 uM.

Tyrosine-protein kinase ABL1 (Homo sapiens), sequence (P00519 whole entry): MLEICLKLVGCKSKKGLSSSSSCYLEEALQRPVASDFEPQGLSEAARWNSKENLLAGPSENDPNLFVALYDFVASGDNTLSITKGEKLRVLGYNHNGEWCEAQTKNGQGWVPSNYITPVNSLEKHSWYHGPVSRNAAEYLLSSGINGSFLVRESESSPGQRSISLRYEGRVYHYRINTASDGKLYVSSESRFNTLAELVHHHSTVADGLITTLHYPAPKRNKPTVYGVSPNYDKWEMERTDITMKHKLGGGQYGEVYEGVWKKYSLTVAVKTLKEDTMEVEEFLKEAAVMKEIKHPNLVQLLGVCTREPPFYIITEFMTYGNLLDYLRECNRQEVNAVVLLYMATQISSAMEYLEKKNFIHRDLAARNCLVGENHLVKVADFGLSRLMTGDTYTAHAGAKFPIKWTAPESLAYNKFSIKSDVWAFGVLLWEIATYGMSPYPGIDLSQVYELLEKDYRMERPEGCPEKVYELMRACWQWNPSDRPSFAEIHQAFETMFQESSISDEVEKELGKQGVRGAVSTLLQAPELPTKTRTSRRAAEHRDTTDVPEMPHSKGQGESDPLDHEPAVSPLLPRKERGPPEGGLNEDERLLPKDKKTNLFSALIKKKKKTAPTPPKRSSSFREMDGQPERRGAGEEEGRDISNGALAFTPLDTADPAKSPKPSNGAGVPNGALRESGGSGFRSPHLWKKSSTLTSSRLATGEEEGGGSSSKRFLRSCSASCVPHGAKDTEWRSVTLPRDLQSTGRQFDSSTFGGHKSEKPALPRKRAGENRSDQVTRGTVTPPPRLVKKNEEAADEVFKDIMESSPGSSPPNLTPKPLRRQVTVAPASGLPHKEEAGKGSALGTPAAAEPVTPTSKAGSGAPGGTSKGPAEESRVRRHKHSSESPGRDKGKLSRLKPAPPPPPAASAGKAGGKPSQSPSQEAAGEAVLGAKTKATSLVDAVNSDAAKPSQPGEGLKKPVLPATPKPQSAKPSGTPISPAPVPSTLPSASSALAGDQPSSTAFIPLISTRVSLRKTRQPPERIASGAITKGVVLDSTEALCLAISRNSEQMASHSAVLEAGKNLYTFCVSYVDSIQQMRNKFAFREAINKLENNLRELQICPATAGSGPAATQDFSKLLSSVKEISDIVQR

The term inhibition denotes the change of the read-out against control, counted positive when it falls. On to `COc1ccc(C(=O)NC(=O)Nc2ccc3c(c2)NC(=O)/C3=C\c2[nH]c(C)c(C(=O)NCCN3CCCC3)c2C)c(F)c1`, for which the inhibition in [1] is 38%; in series [2], 32%; in [3], 20%; in [4], 40%; in series [5] it was 32%; in [8], “Dose-dependent effect”. Further, the inhibition is 40% in [9]; “Dose-dependent effect” in [11]; 18% in series [14]; 62% in series [15]; 20% in series [18]; 55% in series [20]. Also, the inhibition is 74% in series [21]; 10% in series [22]; 97% in series [23]; 21% in series [24]; “Dose-dependent effect” in series [26]; 13% in [27]. Besides, the inhibition is 23% in series [28]; 65% in series [29]; 57% in series [30]; 20% in [32]; 2% in series [33]. Besides, the Activity entry in [6], in [10], in series [12], in series [13] and in [31] was “Dose-dependent effect” each time. The inhibition entry in [7], in series [16], in series [19] and in series [25] was “inactive” throughout. In addition, the result in series [17] was Active.

The IC50 is the concentration that inhibits the measured activity by half. As for `COc1ccc(C(=O)NC(=O)Nc2ccc3c(c2)NC(=O)/C3=C\c2[nH]c(C)c(-c3ccccc3)c2C)cc1`, the IC50 in series [34] is > 1000 nM; in [35] it was > 500 nM; in series [37] it was > 500 nM; in [39] it was > 500 nM; in series [40] it was > 500 nM. Further, the viability at 1 µM in series [36] is 73%; in series [38], 51%; in series [41], 51%; in series [42] it was 65%.

On to `COc1ccc(C(=O)NC(=O)Nc2ccc3c(c2)NC(=O)/C3=C\c2ccc(C(=O)O)[nH]2)cc1`, for which the IC50 in [34] was > 1000 nM; in series [35], > 500 nM; in [37], > 500 nM; in series [39], > 500 nM; in series [40], > 500 nM; in series [43], > 1000 nM. Also, the viability at 1 µM worked out at 65% in series [36], 62% in series [38], 55% in series [41] and 65% in [42].

Turning to `COc1ccc(C(=O)NC(=O)Nc2ccc3c(c2)NC(=O)/C3=C\c2ccc[nH]2)cc1`, in series [44], the Papp was found to be 0.67 ×10⁻⁶ cm/s. In addition, the IC50 in series [35] turned out to be 29.5 nM; in [37], 68.4 nM; in [39], 29.3 nM; in [40], 18.1 nM. Also, the inhibition in series [3] is 17%; in [46], 94%; in [21] it was 35%; in series [24], 11%; in series [30], 30%. In series [45], the Ratio was 0.37.
